Measured values taken from patent US20160011174A1, “Assay for Determining the Cell Number in Cultured Cells” (KEELE UNIVERSITY, priority 2013, published 2016).

Legend:
[1] = tested on: hepG2 cells; assay: Removal of added AA from DMEM medium by hepG2 cells (SIFT-MS headspace); assay type: in vitro ADME, human; details: 20 million hepG2 cells; for headspace AA concentration after incubation with cells: 16 hours
Protocol: (§1) The inhibitor solutions were then added to volumes of medium so that the final DMSO concentration was always 0.1% v/v (or ˜14 500 μM). In some experiments, inhibitors were added to hMSCs during routine culture, some 24 hours prior to proceeding to the next phase of the analysis, but this pre-treatment was not employed in the hepG2 experiments. […] The importance of precursor ions in the analysis is explained further in the SIFT-MS section below. The method used for the preparation of cell cultures for SIFTMS headspace analysis was adapted from the previous studies published in 2003 (ref. 21) and 2009 (ref. 22). On the evening prior to the analysis, the cells were removed from the tissue culture flasks using trypsin, counted using a haemocytometer, and suspended in fresh DMEM media containing the ALDH inhibitor where appropriate, inside 150 mL glass bottles. […] The headspace of each bottle was purged with dry cylinder air before the bottles were finally sealed with metal caps, which incorporate rubber septa, and placed inside an incubator to be held at 37° C. for around 16 hours/overnight.
The methodology of SIFT-MS analyses for the sampling and quantification of compounds in the headspace of liquid samples has been described in detail previously (Refs 21,22,27-32). […] The product ions and the precursor ions are then analysed by a quadrupole mass spectrometer/detection system. Throughout the present study the instrument was operated in the multiple ion monitoring (MIM) mode, during which the desired precursor ion and its hydrates (Ref 33) and the characteristic product ions, are continuously monitored. This system, in combination with the previously compiled kinetics data for the reactions between the precursor ions and neutral molecules (Refs 34,35 rapidly allows the simultaneous absolute quantification of the concentrations of several selected volatile compounds of interest. The simultaneous detection and analysis of AA and DMS in a mixture presents a peculiar problem to SIFT-MS because of the overlap of characteristic product ions on which the analysis depends. However, the ion chemistry involved has been studied in detail and the kinetics database entries required for the accurate analyses of these two compounds by SIFT-MS have been constructed by following the guidelines given by previous studies (refs 34,35). In brief, AA was analysed using H3O^+ precursor ions and the unique protonated AA characteristic product ion at m/z 45, as described in detail in a recent paper (Ref 36). […]
Removal of AA from DMEM medium by cellular action. […] Identical medium samples without cells were also analysed (as described above) to obtain the starting (background) headspace AA concentration. […]

[2] = tested on: hepG2 cells; assay: Live-dead staining viability after sealed bottle incubation; assay type: cell-based, human; details: 1.5(10^7) hepG2 cells sealed 16 hours; 200 μM DEAB or 20 μM DSF
Protocol: In order to assess any changes in the viability of hepG2 cells due to the method of analysis, which requires the cells to be sealed inside a glass bottle for around 16 hours, cells were cultured to near-confluence using the untreated medium described earlier, and observed using a live-dead staining (Sigma, UK), and confocal microscopy. […] The cell-suspensions were then sealed inside 150 mL glass bottles and incubated at 37° C. for 16 hours. The suspensions were then removed from the bottles and assessed by the same live-dead staining.

[3] = tested on: ALDH; assay: SIFT-MS headspace acetaldehyde (AA) in hepG2 cultures with ALDH inhibitors; assay type: cell-based, human
Protocol: (§2) Human mesenchymal stem cells, hMSCs, are a primary cell type, and were isolated from a bone marrow aspirate sample (person; Lonza, US) using the plastic-adherence methodology and the hepG2 cells are of a human hepatocellular carcinoma cell line (Eton Bioscience, US), a cell line commonly used for the study of liver function. In both cases, the cells were cultured to confluence in Dulbecco's modified Eagle's medium (DMEM; Lonza, UK), supplemented with 10% v/v foetal bovine serum (FBS; Lonza, UK), 50 U mL^−1 penicillin-streptomycin (Lonza, UK) and 2 mM L-glutamine (Lonza, UK). The hMSCs additionally contained 1% v/v non-essential amino acids. The hMSCs were not cultured beyond passage number 4, whereas the well-differentiated hepG2 cells were analysed before passage number 20.
The inhibitor solutions were then added to volumes of medium so that the final DMSO concentration was always 0.1% v/v (or ˜14 500 μM). In some experiments, inhibitors were added to hMSCs during routine culture, some 24 hours prior to proceeding to the next phase of the analysis, but this pre-treatment was not employed in the hepG2 experiments. […] On the evening prior to the analysis, the cells were removed from the tissue culture flasks using trypsin, counted using a haemocytometer, and suspended in fresh DMEM media containing the ALDH inhibitor where appropriate, inside 150 mL glass bottles. […]
(§3) The methodology of SIFT-MS analyses for the sampling and quantification of compounds in the headspace of liquid samples has been described in detail previously (Refs 21,22,27-32). […] The product ions and the precursor ions are then analysed by a quadrupole mass spectrometer/detection system. Throughout the present study the instrument was operated in the multiple ion monitoring (MIM) mode, during which the desired precursor ion and its hydrates (Ref 33) and the characteristic product ions, are continuously monitored. […] In brief, AA was analysed using H3O^+ precursor ions and the unique protonated AA characteristic product ion at m/z 45, as described in detail in a recent paper (Ref 36). […]

[4] = tested on: hMSCs; assay: SIFT-MS headspace DMS in hMSC cultures (DMSO reduction to DMS); assay type: cell-based, human; details: approximately 5(10^6) hMSCs, 24 hours pre-treatment plus 16 hours sealed incubation, 0.1% v/v DMSO
Protocol: as §2
(§4) The inhibitor solutions were then added to volumes of medium so that the final DMSO concentration was always 0.1% v/v (or ˜14 500 μM). […] On the evening prior to the analysis, the cells were removed from the tissue culture flasks using trypsin, counted using a haemocytometer, and suspended in fresh DMEM media containing the ALDH inhibitor where appropriate, inside 150 mL glass bottles. […]
(§5) The methodology of SIFT-MS analyses for the sampling and quantification of compounds in the headspace of liquid samples has been described in detail previously (Refs 21,22,27-32). […]

[5] = tested on: hepG2 cells; assay: SIFT-MS headspace DMS in hepG2 cultures (DMSO reduction to DMS); assay type: cell-based, human
Protocol: as §2, §1, §3

[6] = tested on: ALDH; assay: SIFT-MS headspace AA in hMSC cultures with ALDH inhibitors; assay type: cell-based, human; details: approximately 5(10^6) hMSCs, 24 hours pre-treatment plus 16 hours sealed incubation
Protocol: as §2, §4, §5

[7] = tested on: Caco2/TC7 colon tumour cell cultures; details: cited from earlier work
[8] = 200 μM DEAB, about 1(10^7) hepG2 cells, 16 hours

CC=O [AA, acetaldehyde]
reduction of headspace AA concentration by cells ([1]; 50 mL DMEM, 16 hours at 37° C.): approximately 90% | headspace AA concentration after incubation with cells ([1]; starting 59 ppbv): 20 ppbv | headspace AA concentration after incubation with cells ([1]; starting 396 ppbv): 48 ppbv | headspace AA concentration after incubation with cells ([1]; starting 990 ppbv): 118 ppbv

CCN(CC)c1ccc(C=O)cc1 [DEAB]
viability by live-dead staining [2]: little or no decline in the viability | peak AA concentration in the liquid phase [3, 8]: 4 µM | peak headspace AA concentration [3, 8]: around 600 ppbv | headspace AA concentration with increasing DEAB concentration ([3]; 1.5(10^7) hepG2 cells, 16 hours at 37° C., DEAB in 0.1% v/v DMSO): general increase in the AA concentration | effect on DMS production from DMSO [4]: effective at preventing DMS production from DMSO | decline in headspace DMS ([5]; 0 to 25 μM DEAB, 1.5(10^7) hepG2 cells, 0.1% v/v DMSO): 30% | DMS production ([5]; 200 μM DEAB, 1(10^4) to 5(10^6) hepG2 cells, 0.1% v/v DMSO): clearly reduced | decline of slope of DMS concentration versus cell number ([5]; 200 μM DEAB, 5(10^6) up to 3(10^7) hepG2 cells, 0.1% v/v DMSO): about 30% | effect on ALDH / ability of hMSCs to metabolise AA [6]: effective inhibitor of ALDH

C[S+](C)[O-] [DMSO, dimethyl sulphoxide]
DMSO concentration causing no observable cytotoxicity [7]: up to 10 % (v/v) | liquid phase DMS concentration formed from DMSO ([5]; 0.1% v/v DMSO in medium, overnight incubation, by Henry's Law): > 300 nM
